Earlier results, collected in EP1027077B1, “MAGNETIC RESONANCE IMAGING AGENTS FOR THE DELIVERY OF THERAPEUTIC AGENTS” (Research Corporation Technologies, Inc, priority 1997, dated 1999).

Conditions: thermodynamic stability of the Gd(III) chelate; background statement

Compound	stability constant (K) / formation constant, logK
O=C([O-])CN1CCN(CC(=O)[O-])CCN(CC(=O)[O-])CCN(CC(=O)[O-])CC1.[Gd+3] [Gd-DOTA]	28.5
O=C([O-])CN(CCN(CC(=O)[O-])CC(=O)[O-])CCN(CC(=O)[O-])CC(=O)[O-].[Gd+3] [Gd(DTPA)^2-]	22.4
